Results reported in US11684644B2, “Composition for promoting absorption of phytochemicals” (MEIJI CO., LTD., priority 2018, dated 2023).
Like-named read-outs stand apart in the source and are kept apart here.

Columns and labels:
[1] = Evaluation for dissolvability of phytochemical (dissolution rate in water); conditions: for Dissolution rate: ultrapure water, shaken for 3 hours, centrifuged supernatant
From the text: In the present invention, the “dissolution rate” is an index indicating dissolvability of a compound into water, and is also represented by the value, in terms of the percentage (%), obtained by dividing a concentration (w/v) of the compound in a supernatant, which is obtained by shaking the compound in pure water to dissolve the compound therein and by centrifuging the solution, by a concentration (w/v) of the compound in pure water before being dissolved therein. The concentration may be measured by using a spectrophotometer. […] The temperature condition in the measurement of the “dissolution rate” is set to 21±2° C.
Furthermore, 10 mL of ultrapure water was added to the glucoside phytochemical such that the amount of aglycone (portion other than carbohydrate obtained by hydrolysis of glucoside) can be equal to 33.3 mg; namely, 67.3 mg of rutin (33.3 mg of quercetin); 89.6 mg of α-glucosyl rutin (33.3 mg of quercetin); 67.3 mg of hesperidin (33.3 mg of hesperetin); or 71.0 mg of naringin (33.3 mg of naringenin). As for the terpenoids, in accordance with the administering amount used in Experiments, 10 mL of ultrapure water was added to 3.3 mg of each of β-carotene and lycopene. The solutions thus prepared were shaken for 3 hours, and then, were centrifuged at 2000×g for 10 minutes. The centrifuged supernatants were filtrated by using a 0.45 μL filter. […] Each compound was dissolved in 80% methanol or methanol to obtain a calibration curve; and then, the concentration of the centrifuged supernatant was obtained. A series of the operations above were carried out under the temperature condition of 21±2° C. The dissolution rate was calculated in accordance with the following formula. Dissolution rate (%)=[(concentration of the centrifuged supernatant after dissolution by shaking (w/v))+(concentration of the solution before dissolution by shaking (w/v)]×100

[2] = Experiment 1: promoting absorption of β-carotene, yogurts of OLL1251 and other strains; assay type: in vivo; conditions: male, SD, oral; rat serum, 5 mg/kg-body weight β-carotene, 11.3 g/kg-body weight yogurt, up to 480 minutes; read-out: Area Under the blood concentration-time Curve (AUC) of β-carotene (converted)
Method: (§1) Column temperature was set at 40° C.
The yogurts thus obtained contained 136 μg/g, 88 μg/g, and 68 μg/g of the polysaccharide, respectively.

[3] = Experiment 3: promoting absorption of β-carotene, yogurts of strain combinations; assay type: in vivo; conditions: male, SD, oral; rat serum, 5 mg/kg-body weight β-carotene, 11.3 g/kg-body weight yogurt, up to 480 minutes; read-out: Area Under the blood concentration-time Curve (AUC) of β-carotene (converted)
Method: as §1
The yogurts thus obtained contained 15 μg/g, 54 μg/g, and 67 μg/g of the polysaccharide, respectively.

[4] = Experiment 5: promoting absorption of β-carotene, comparison with other absorption promotors; assay type: in vivo; conditions: male, SD, oral; rat serum, 5 mg/kg-body weight β-carotene, 70 mg/kg-body weight polysaccharide, up to 480 minutes; read-out: Area Under the blood concentration-time Curve (AUC) of β-carotene (converted)
Method: A part of the yogurt of Experiment 4 (Lactobacillus bulgaricus OLL1251 and Streptococcus thermophilus OLS3290) was taken; and then, to the supernatant thereof was added ethanol the amount of which was three times as much as the supernatant. The resulting mixture was kept in a frozen state, and thereafter, the supernatant of the mixture was centrifuged to obtain a precipitate. This precipitate was freeze-dried to obtain a polysaccharide concentrate. In 11.3 g of the yogurt, 70 mg of the polysaccharide concentrate was included. Hereinafter, the polysaccharide concentrate obtained is called “lactic acid bacterium-originated polysaccharide concentrate”.

in vivo = conditions: male, SD, rat, 5 mg/kg
[5] = concentration of the centrifuged supernatant after shaking in ultrapure water, 21±2° C., glucosides in terms of the aglycone

Molecule | Saturated solubility [1] | Dissolution rate ([1]; 21±2° C.) | other results
C[C@@H]1O[C@@H](O[C@H]2[C@H](Oc3cc(O)c4c(c3)O[C@H](c3ccc(O)cc3)CC4=O)O[C@H](CO)[C@@H](O)[C@@H]2O)[C@H](O)[C@H](O)[C@H]1O [Naringin] | 55 mg/100 g | 17% | 
COc1ccc([C@@H]2CC(=O)c3c(O)cc(O[C@@H]4O[C@H](CO[C@@H]5O[C@@H](C)[C@H](O)[C@@H](O)[C@H]5O)[C@@H](O)[C@H](O)[C@H]4O)cc3O2)cc1O [Hesperidin] |  | 0.2% | Saturated solubility [1, 5]: 0.5 mg/100 g
O=c1c(O)c(-c2ccc(O)c(O)c2)oc2cc(O)cc(O)c12 [Quercetin] | 0.1 mg/100 g | 0.1% or less | 
O=C1C[C@@H](c2ccc(O)cc2)Oc2cc(O)cc(O)c21 [Naringenin] | 1.1 mg/100 g | 0.3% | 
O=c1c(O)c(-c2ccc(O)cc2)oc2cc(O)cc(O)c12 [Kaempferol] | 0.1 mg/100 g | 0.1% or less | 
O=c1c(-c2ccc(O)cc2)coc2cc(O)cc(O)c12 [Genistein] |  | 0.2% | Saturated solubility [1, 5]: 0.6 mg/100 g
Oc1cc(O)c2c(c1)O[C@H](c1ccc(O)c(O)c1)[C@H](O)C2 [Epicatechin] | 287 mg/100 g |  | 
CC1=CCCC(C)(C)C1/C=C/C(C)=C/C=C/C(C)=C/C=C/C=C(C)/C=C/C=C(C)/C=C/C1=C(C)CCCC1(C)C (stereo not drawn) [α-Carotene] | 0.1 or less mg/100 g | 0.1% or less | 
α-Glucosyl rutin | 295 mg/100 g | 89% | 
CC1=C(/C=C/C(C)=C/C=C/C(C)=C/C=C/C=C(C)/C=C/C=C(C)/C=C/C2=C(C)C[C@@H](O)CC2(C)C)C(C)(C)CCC1 [β-Cryptoxanthin] | 0.1 or less mg/100 g | 0.1% or less | 
C[C@@H]1O[C@@H](OC[C@H]2O[C@@H](Oc3c(-c4ccc(O)c(O)c4)oc4cc(O)cc(O)c4c3=O)[C@H](O)[C@@H](O)[C@@H]2O)[C@H](O)[C@H](O)[C@H]1O [Rutin] | 1.0 mg/100 g |  | 
O=c1cc(-c2ccc(O)c(O)c2)oc2cc(O)cc(O)c12 [Luteolin] | 0.1 or less mg/100 g | 0.1% or less | 
CC1=C[C@H](O)CC(C)(C)[C@H]1/C=C/C(C)=C/C=C/C(C)=C/C=C/C=C(C)/C=C/C=C(C)/C=C/C1=C(C)C[C@@H](O)CC1(C)C [Lutein] | 0.1 or less mg/100 g | 0.1% or less | 
CC(C)=CCC/C(C)=C/C=C/C(C)=C/C=C/C(C)=C/C=C/C=C(C)/C=C/C=C(C)/C=C/C=C(\C)CCC=C(C)C [Lycopene] | 0.1 or less mg/100 g | 0.1% or less | 
CC1=C(/C=C/C(C)=C/C=C/C(C)=C/C=C/C=C(C)/C=C/C=C(C)/C=C/C2=C(C)CCCC2(C)C)C(C)(C)CCC1 [β-Carotene] | 0.1 or less mg/100 g | 0.1% or less | AUC [2]: 75 ng·h/mL; AUC [3]: 88.8 ng·h/mL; AUC [4]: 131 ng·h/mL; AUC (in vivo): 110 ng·h/mL
CC1=C(/C=C/C(C)=C/C=C/C(C)=C/C=C/C=C(C)/C=C/C=C(C)/C=C/C(=O)[C@]2(C)C[C@@H](O)CC2(C)C)C(C)(C)C[C@H](O)C1 [Capsanthin] | 0.1 or less mg/100 g | 0.1% or less | 
